According to paper PMC9687439 (Biology, 2022):
Entries after “also recorded” stand apart in the source; their conditions may differ. Like-named read-outs stand apart in the source and are kept apart here. Ends that are not written are not given here.

How the values were obtained:
Xylella fastidiosa cells [1] = type: cell-based
Xylella fastidiosa cells [2] = type: cell-based; remark: listed apart in the source
[3] = test system: Xylella fastidiosa biofilm; type: cell-based; settings: 50 μM, 20 days, 28 °C
[4] = test system: Xylella fastidiosa subsp. pauca, strain De Donno; type: cell-based
[5] = test system: Xylella fastidiosa subsp. pauca, strain De Donno; type: cell-based; remark: listed apart in the source
E. coli = settings: cited from earlier work
Xylella fastidiosa cells [6] = type: cell-based; remark: listed apart in the source
S. aureus = settings: cited from earlier work
[7] = test system: Xanthomonas albilineans (Xa), strain CFBP2523; type: cell-based; design: key: +++: Clear plaque formation; ++: turbid plaque formation; +: highly turbid plaque formation; -: no plaque formation
X. fastidiosa = settings: cited from earlier work
[8] = test system: Nicotiana tabacum cv. Xanthi leaves; settings: in vivo
Xf strain 9a5c = settings: cited from earlier work
[9] = test system: Xylella fastidiosa subsp. pauca isolate De Donno in Nicotiana tabacum (var. Xanthi); type: in vivo
Xf = settings: 1 mg/mL; cited from earlier work

| Molecule | lytic activity by fluorescence microscopy (live green / dead red) (Xylella fastidiosa cells [1]) | effect on Xf biofilm formation (comparison, words) [3] | antimicrobial activity on Xf growth in antibiogram [4] | reductive activity against Xf cells (OD600, words) [5] | MIC (μM) E. coli (E. coli) | morphological changes of Xf cells under TEM (Xylella fastidiosa cells [6]) | MIC (μM) S. aureus (S. aureus) | growth inhibition of Xanthomonas albilineans (plaque formation) [7] | also measured |
| --- | --- | --- | --- | --- | --- | --- | --- | --- | --- |
| FFGKVLKLIRKIF-NH2 [FF13, DASamP1, synthetic antimicrobial peptide, …-NH2] | moderate lytic activity | greater performance than KL29 | particularly highly active | greatest activity | >100 µM | cytoplasmic condensation, loss of interior appearance, and alteration of the outer membrane | 3.1 µM | +++ | reduction in Xf cell viability (v-qPCR) (Xylella fastidiosa cells [2]): twofold reduction in cell viability |
| FFHHIFRGIVHVGKTIHRLVTG [FG22, Piscidin 1, antimicrobial peptide, source fish] | – | – | – | – | 12.5 µM | – | 3.1 µM | +++ and - | – |
| IKWKKLLRAAKRIL-NH2 [IL14, DASamP2, synthetic antimicrobial peptide, […]-NH2] | moderate lytic activity | greater performance than KL29 | particularly highly active | greatest activity | 3.1 µM | cytoplasmic condensation, loss of interior appearance, and alteration of the outer membrane | 6.2 µM | +++ | reduction in Xf cell viability (v-qPCR) (Xylella fastidiosa cells [2]): twofold reduction in cell viability |
| GLLGLLGSVVSHVVPAIVGHF-NH2 [GF21, Maculatin 1.3, antimicrobial peptide, source frog] | – | – | – | – | >100 µM | – | 6.2 µM | +++ and - | – |
| RIVWVRIRRWFV-NH2 [RV12, RIJK2, synthetic antimicrobial peptide, …-NH2] | – | – | – | – | – | – | – | +++ and + | MIC (μM) X. fastidiosa (X. fastidiosa): 12.5 µM |
| VQFRIRVRIVIRK-NH2 [VK13, 1036, synthetic antimicrobial peptide, […]-NH2] | – | – | – | – | – | – | – | +++ and + | MIC (μM) X. fastidiosa (X. fastidiosa): 12.5 µM |
| GFKDLLKGAAKALVKTVLF-NH2 [GF19, Ascaphin-8] | highest lytic activities | interfered with biofilm formation in the same manner as NAC; also recorded: greater performance than KL29 | particularly highly active; also recorded: distinct inhibitory activity | greatest activity | 12.5 µM | damaged and fragmented cell walls, with complete destruction of the outer and inner bacterial membranes | 3.1 µM | +++ | diameter of halo-shaped tissue dissolving in tobacco leaves [8]: 7 mm; hypersensitive reaction in tobacco leaves [8]: light hypersensitive reaction; reduction in viability of Xf compared to untreated cells (v-qPCR) (Xylella fastidiosa cells [2]): more-than-fourfold reduction in viability |
| Lycotoxin I [IL25] | – | – | – | – | 25 µM | – | 3.1 µM | +++ and - | – |
| CC(=O)N[C@@H](CS)C(=O)O [NAC, N-acetyl-L-cysteine] | – | – | – | – | – | – | – | – | effect on biofilm biomass of Xf strain 9a5c (Xf strain 9a5c): reducing the biofilm biomass; Xf disease symptoms in Xf-infected tobacco plants ([9]; 30 dpi, 100 μL of treatment at inoculation point): did not develop any symptoms; Xf disease symptoms in Xf-infected tobacco leaf ([9]; 45 dpi, positive control treatment): no symptoms; morphological changes of Xf cells under TEM (Xylella fastidiosa cells [6]; 50 μM, 1 h, room temperature, Xf 10^8 CFU/mL): pore and protrusion formation and condensed cytoplasmic outflow from the outer membrane; activity against Xf (Xf): biocidal |
